pIC50: −log10 of the molar value.
Key:
Format in all cases: cell-based
[1] = system: LAPC4 prostate cancer cells; test: Antiproliferative effects in LAPC4 cells (CellTiter Glo); conditions: Homo sapiens, LAPC4, 72 h, LAPC4 cells (AKT1 E17K allele), read-out: LAPC4 proliferation IC50
In short: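 Growth inhibition is gauged by intracellular ATP content, measured with CellTiter Glo 72 h after compound addition to 1,000 seeded cells per well. IC50 derives from a Hill equation fit.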

AKT1 E17K = biological target: T1, AKT1 E17K (Homo sapiens, UniProt P31749, E17K); test: Live cell AKT1 E17K target engagement by NanoBRET competitive probe displacement; conditions: HEK293 cells transfected with kinase-NanoLuciferase fusion, 2 h at 37° C.
T1 construct: expressed in transfected cells; host or cells: HEK293
In short: (§1)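 Steps: overnight transfection of HEK293 with kinase-NanoLuc plasmids; addition of compound dilutions and tracer (~EC50); 2 h incubation at 37 °C; substrate plus extracellular luciferase inhibitor; luminescence at 460 and 600 nm. IC50 values came from fitting the BRET ratio to a Hill equation.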

AKT1 WT = biological target: T2, AKT1 WT (Homo sapiens, UniProt P31749); test: Live cell AKT1 WT target engagement by NanoBRET competitive probe displacement; conditions: HEK293 cells transfected with kinase-NanoLuciferase fusion, 2 h at 37° C.
T2 construct: expressed in transfected cells; host or cells: HEK293
In short: as §1

AKT2 = biological target: T3, AKT2 (Homo sapiens, UniProt P31751); test: Live cell AKT2 target engagement by NanoBRET competitive probe displacement; conditions: HEK293 cells transfected with kinase-NanoLuciferase fusion, 2 h at 37° C.
T3 construct: expressed in transfected cells; host or cells: HEK293
In short: as §1

T3 sequence (P31751 whole entry, the tested form may be a part): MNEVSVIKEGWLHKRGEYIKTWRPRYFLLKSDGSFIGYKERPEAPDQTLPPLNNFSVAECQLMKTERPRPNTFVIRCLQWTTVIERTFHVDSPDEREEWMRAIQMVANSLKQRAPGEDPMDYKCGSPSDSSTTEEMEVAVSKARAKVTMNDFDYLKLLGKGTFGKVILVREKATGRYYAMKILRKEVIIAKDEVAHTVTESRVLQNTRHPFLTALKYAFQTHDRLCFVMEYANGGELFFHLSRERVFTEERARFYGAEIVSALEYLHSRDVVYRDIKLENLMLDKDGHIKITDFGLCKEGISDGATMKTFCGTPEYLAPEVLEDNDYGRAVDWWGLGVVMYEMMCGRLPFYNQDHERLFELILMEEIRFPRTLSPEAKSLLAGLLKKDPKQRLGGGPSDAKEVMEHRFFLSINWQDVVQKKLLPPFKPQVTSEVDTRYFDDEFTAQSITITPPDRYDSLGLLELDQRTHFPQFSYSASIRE
T1 sequence (P31749 whole entry E17K, the tested form may be a part): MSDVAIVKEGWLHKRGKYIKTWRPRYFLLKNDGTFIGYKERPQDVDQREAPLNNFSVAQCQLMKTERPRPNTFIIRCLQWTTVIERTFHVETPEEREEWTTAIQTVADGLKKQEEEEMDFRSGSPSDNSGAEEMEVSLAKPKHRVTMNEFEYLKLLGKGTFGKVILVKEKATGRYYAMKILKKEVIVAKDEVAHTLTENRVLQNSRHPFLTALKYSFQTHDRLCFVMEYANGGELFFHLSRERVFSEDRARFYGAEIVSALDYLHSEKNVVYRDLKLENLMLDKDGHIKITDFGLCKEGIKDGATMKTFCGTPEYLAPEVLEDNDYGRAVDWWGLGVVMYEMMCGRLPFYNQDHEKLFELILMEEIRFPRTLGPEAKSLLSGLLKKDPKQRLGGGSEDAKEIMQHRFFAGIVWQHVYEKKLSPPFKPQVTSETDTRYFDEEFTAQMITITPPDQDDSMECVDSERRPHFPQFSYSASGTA
T2 sequence (P31749 whole entry, the tested form may be a part): as the sequence (P31749 whole entry E17K, the tested form may be a part) above, with K17E counted along it

| Structure (SMILES) | pIC50 [1] | pIC50 (AKT1 E17K) | pIC50 (AKT1 WT) | pIC50 (AKT2) |
| --- | --- | --- | --- | --- |
| C=CC(=O)N1CC2COC(C1)C2N[C@H]1CCc2cc(-n3c(-c4cccnc4N)nc4ccc(-n5cccn5)nc43)ccc21 (stereo partly drawn) [Example 224, 1-(8-{[(1S)-5-[2-(2-aminopyridin-3-yl)-5-(pyrazol-1-yl)imidazo[4,5-b]pyridin-3-yl]-2,3-dihydro-1H-inden-1-yl]amino}-6-oxa-3-azabicyclo[3.2.1]octan-3-yl)prop-2-en-1-one] | 6.14 | 7.15 | 5.91 | 6.59 |
| C=CC(=O)N1CCC(N[C@H]2CCc3cc(-n4c(-c5cccnc5N)nc5ccc(N6CC[C@H](F)C6)nc54)ccc32)CC1 [Example 226, 1-(4-{[(1S)-5-[2-(2-aminopyridin-3-yl)-5-[(3S)-3-fluoropyrrolidin-1-yl]imidazo[4,5-b]pyridin-3-yl]-2,3-dihydro-1H-inden-1-yl]amino}piperidin-1-yl)prop-2-en-1-one] | 6.56 | 7.65 | 6.98 | 7.16 |
| C=CC(=O)N1CCC(N[C@H]2CCc3cc(-n4c(-c5cccnc5N)nc5ccc(C6CC(F)(F)C6)nc54)ccc32)CC1 [Example 227, 1-(4-{[(1S)-5-[2-(2-aminopyridin-3-yl)-5-(3,3-difluorocyclobutyl)imidazo[4,5-b]pyridin-3-yl]-2,3-dihydro-1H-inden-1-yl]amino}piperidin-1-yl)prop-2-en-1-one] | 6.27 | 7.41 | 6.15 | 6.55 |
| C=CC(=O)N1CCC(N[C@H]2CCc3cc(-n4c(-c5cccnc5N)nc5ccc(N6CCC(F)CC6)nc54)ccc32)CC1 [Example 238, 1-(4-{[(1S)-5-[2-(2-aminopyridin-3-yl)-5-(4-fluoropiperidin-1-yl)imidazo[4,5-b]pyridin-3-yl]-2,3-dihydro-1H-inden-1-yl]amino}piperidin-1-yl)prop-2-en-1-one] | 6.18 | 7.43 | 6.17 | 6.18 |
| C=CC(=O)N1CCC(N[C@H]2CCc3cc(-n4c(-c5cccs5)nc5ccc(-n6cccn6)nc54)ccc32)CC1 [Example 239, 1-(4-{[(1S)-5-[5-(pyrazol-1-yl)-2-(thiophen-2-yl)imidazo[4,5-b]pyridin-3-yl]-2,3-dihydro-1H-inden-1-yl]amino}piperidin-1-yl)prop-2-en-1-one] | 5.99 | 7.36 | 5.84 | 6.48 |
| C=CC(=O)N1CCC(N[C@H]2CCc3cc(-n4c(-c5cccc(F)c5)nc5ccc(-n6cccn6)nc54)ccc32)CC1 [Example 240, 1-(4-{[(1S)-5-[2-(3-fluorophenyl)-5-(pyrazol-1-yl)imidazo[4,5-b]pyridin-3-yl]-2,3-dihydro-1H-inden-1-yl]amino}piperidin-1-yl)prop-2-en-1-one] | 5.98 | 7.37 | 5.60 | 6.51 |
| C=CC(=O)N1CCC(N[C@H]2CCc3cc(-n4c(-c5ccccc5F)nc5ccc(-n6cccn6)nc54)ccc32)CC1 [Example 241, 1-(4-{[(1S)-5-[2-(2-fluorophenyl)-5-(pyrazol-1-yl)imidazo[4,5-b]pyridin-3-yl]-2,3-dihydro-1H-inden-1-yl]amino}piperidin-1-yl)prop-2-en-1-one] | 7.11 | 8.25 | 6.69 | 7.73 |
| C=CC(=O)N1CCC(N[C@H]2CCc3cc(-n4c(-c5ccccc5)nc5ccc(C6CC6)nc54)ccc32)CC1 [Example 246, 1-(4-{[(1S)-5-{5-cyclopropyl-2-phenylimidazo[4,5-b]pyridin-3-yl}-2,3-dihydro-1H-inden-1-yl]amino}piperidin-1-yl)prop-2-en-1-one] | 5.80 | 7.18 | 5.60 | 6.15 |
| C=CC(=O)N1CCC(N[C@H]2CCc3cc(-n4c(-c5ccc(F)cc5)nc5ccc(-n6cccn6)nc54)ccc32)CC1 [Example 247, 1-(4-{[(1S)-5-[2-(4-fluorophenyl)-5-(pyrazol-1-yl)imidazo[4,5-b]pyridin-3-yl]-2,3-dihydro-1H-inden-1-yl]amino}piperidin-1-yl)prop-2-en-1-one] | 5.77 | 6.95 | 5.51 | 6.33 |
| C=CC(=O)N1CCC(N[C@H]2CCc3cc(-n4c(-c5cccnc5F)nc5ccc(-n6cccn6)nc54)ccc32)CC1 [Example 251, 1-(4-{[(1S)-5-[2-(2-fluoropyridin-3-yl)-5-(pyrazol-1-yl)imidazo[4,5-b]pyridin-3-yl]-2,3-dihydro-1H-inden-1-yl]amino}piperidin-1-yl)prop-2-en-1-one] | 5.65 | 6.95 | 5.67 | 6.55 |
| C=CC(=O)N1CCC(N[C@H]2CCc3cc(-n4c(-c5cccnc5N)nc5ccc(-n6ccc(Cl)n6)nc54)ccc32)CC1 [Example 252, 1-(4-{[(1S)-5-[2-(2-aminopyridin-3-yl)-5-(3-chloropyrazol-1-yl)imidazo[4,5-b]pyridin-3-yl]-2,3-dihydro-1H-inden-1-yl]amino}piperidin-1-yl)prop-2-en-1-one] | 7.05 | 7.98 | 6.90 | 7.41 |
| C=CC(=O)N1CCC(N[C@H]2CCc3cc(-n4c(-c5cccnc5N)nc5ccc(-c6nnc(C)s6)nc54)ccc32)CC1 [Example 257, (S)-1-(4-((5-(2-(2-aminopyridin-3-yl)-5-(5-methyl-1,3,4-thiadiazol-2-yl)-3H-imidazo[4,5-b]pyridin-3-yl)-2,3-dihydro-1H-inden-1-yl)amino)piperidin-1-yl)prop-2-en-1-one] | 6.99 | 7.86 | 6.36 | 7.14 |
| C=CC(=O)N1CCC(N[C@H]2CCc3cc(-n4c(-c5cccnc5N)nc5ccc(N6CCN(C)CC6)nc54)ccc32)CC1 [Example 259, 1-(4-{[(1S)-5-[2-(2-aminopyridin-3-yl)-5-(4-methylpiperazin-1-yl)imidazo[4,5-b]pyridin-3-yl]-2,3-dihydro-1H-inden-1-yl]amino}piperidin-1-yl)prop-2-en-1-one] | 5.82 | 6.82 | 5.48 | 6.01 |

The remaining lines, values ahead:

| pIC50 [1] | pIC50 (AKT1 E17K) | pIC50 (AKT1 WT) | pIC50 (AKT2) | Structure (SMILES) |
| --- | --- | --- | --- | --- |
| 6.40 | 7.50 | 6.51 | 6.62 | C=CC(=O)N1CCC(N[C@H]2CCc3cc(-n4c(-c5cccnc5N)nc5ccc(-c6cnn(C(F)(F)F)c6)nc54)ccc32)CC1 [Example 225, 1-(4-{[(1S)-5-[2-(2-aminopyridin-3-yl)-5-[1-(trifluoromethyl)pyrazol-4-yl]imidazo[4,5-b]pyridin-3-yl]-2,3-dihydro-1H-inden-1-yl]amino}piperidin-1-yl)prop-2-en-1-one] |
| 6.82 | 7.76 | 6.66 | 7.01 | C=CC(=O)N1CCC(N[C@H]2CCc3cc(-n4c(-c5cccnc5N)nc5ccc(-n6ccc(C)n6)nc54)ccc32)CC1 [Example 243, 1-(4-{[(1S)-5-[2-(2-aminopyridin-3-yl)-5-(3-methylpyrazol-1-yl)imidazo[4,5-b]pyridin-3-yl]-2,3-dihydro-1H-inden-1-yl]amino}piperidin-1-yl)prop-2-en-1-one] |
| 6.90 | 7.84 | 6.50 | 7.23 | C=CC(=O)N1CCC(N[C@H]2CCc3cc(-n4c(-c5cccnc5N)nc5ccc(-c6nc(C)co6)nc54)ccc32)CC1 [Example 253, 1-(4-{[(1S)-5-[2-(2-aminopyridin-3-yl)-5-(4-methyl-1,3-oxazol-2-yl)imidazo[4,5-b]pyridin-3-yl]-2,3-dihydro-1H-inden-1-yl]amino}piperidin-1-yl)prop-2-en-1-one] |
| 7.03 | 7.96 | 7.05 | 7.43 | C=CC(=O)N1CCC(N[C@H]2CCc3cc(-n4c(-c5cccnc5N)nc5ccc(-n6cc(F)cn6)nc54)ccc32)CC1 [Example 254, (S)-1-(4-((5-(2-(2-aminopyridin-3-yl)-5-(4-fluoro-1H-pyrazol-1-yl)-3H-imidazo[4,5-b]pyridin-3-yl)-2,3-dihydro-1H-inden-1-yl)amino)piperidin-1-yl)prop-2-en-1-one] |
| 6.67 | 7.48 | 6.26 | 6.75 | C=CC(=O)N1CCC(N[C@H]2CCc3cc(-n4c(-c5cccnc5N)nc5ccc(-c6ncc(C)o6)nc54)ccc32)CC1 [Example 255, 1-(4-{[(1S)-5-[2-(2-aminopyridin-3-yl)-5-(5-methyl-1,3-oxazol-2-yl)imidazo[4,5-b]pyridin-3-yl]-2,3-dihydro-1H-inden-1-yl]amino}piperidin-1-yl)prop-2-en-1-one] |
| 6.09 | 6.73 | 5.77 | 6.40 | C=CC(=O)N1CCC(N[C@H]2CCc3cc(-n4c(-c5cccnc5N)nc5ccc(-c6nnc(C)o6)nc54)ccc32)CC1 [Example 256, (S)-1-(4-((5-(2-(2-aminopyridin-3-yl)-5-(5-methyl-1,3,4-oxadiazol-2-yl)-3H-imidazo[4,5-b]pyridin-3-yl)-2,3-dihydro-1H-inden-1-yl)amino)piperidin-1-yl)prop-2-en-1-one] |
| 6.28 | 7.02 | 5.88 | 6.04 | C=CC(=O)N1CCC(N[C@H]2CCc3cc(-n4c(-c5cccnc5N)nc5ccc(N6CC7CCC(C6)O7)nc54)ccc32)CC1 [Example 258, 1-(4-{[(1S)-5-[2-(2-aminopyridin-3-yl)-5-{8-oxa-3-azabicyclo[3.2.1]octan-3-yl}imidazo[4,5-b]pyridin-3-yl]-2,3-dihydro-1H-inden-1-yl]amino}piperidin-1-yl)prop-2-en-1-one] |

Reference: patent publication US12570655B2, “Cysteine covalent modifiers of AKT1 and uses thereof” (Terremoto Biosciences, Inc., priority 2023, dated 2026)
